The record followed here is ChEMBL document CHEMBL2029336, “S-Adenosylhomocysteine hydrolase of the protozoan parasite Trichomonas vaginalis: potent inhibitory activity of 9-(2-deoxy-2-fluoro-β,D-arabinofuranosyl)adenine” (Bioorg Med Chem Lett, 2012).

Series [1] deals with Trichomonas vaginalis. As to the kind of experiment: Growth inhibition of Trichomonas vaginalis T1 after 24 hrs by hemocytometry. It counts as functional, organism-based. Particulars: T1, 24 h.
Series [2] relates to Trichomonas vaginalis. The series is described as follows: Growth inhibition of Trichomonas vaginalis T1 at 100 uM after 24 hrs by hemocytometry. Type of series: functional. Particulars: for inhibition of growth at 100 µM: T1, 24 h, read-out: GI.
The subject of series [3] is Trichomonas vaginalis. As to the kind of experiment: Growth inhibition of mtronidazole-resistant Trichomonas vaginalis after 24 hrs by hemocytometry. It counts as functional, organism-based.
The subject of series [4] is CHO-K1. The series is described as follows: Cytotoxicity against CHOK1 cells assessed as morphological changes at 100 uM after 48 hrs by microscopy. To be noted: chinese hamster, cho-k1, 48 h. It counts as cell-based, Cricetulus griseus.

The source made the active and inactive calls. The rule behind the calls is not given here.

In general, IC50 refers to the point on the concentration scale where inhibition reaches its midpoint. A lower IC50 goes with greater potency.

Compound `Nc1ncnc2c1ncn2[C@@H]1O[C@H](CO)[C@@H](O)[C@H]1F` [2'-BETA-FLUORO-2',3'-DEOXYADENOSINE] had an IC50 in series [1] of 2.94 µM. Besides, the inhibition of growth at 100 µM in series [2] amounted to 100%.

On to `COc1ccc(SC[C@H]2O[C@@H](n3ccc(=O)[nH]c3=O)[C@H](O)[C@@H]2O)cc1`, for which the “growth inhibition (GI)” value in series [2] was “inactive”.

Regarding `Nc1ncnc2c1ncn2[C@@H]1O[C@H](CCl)[C@@H](O)[C@H]1O`, inhibition in series [1] was half-maximal at 53.3 µM (IC50). In series [2], the inhibition of growth at 100 µM was determined as 88.9%.

Regarding `Nc1ncnc2c1ncn2[C@@H]1O[C@H](CO)[C@@H](O)[C@@H]1Cl`, in series [1], inhibition was half-maximal at 5.93 µM (IC50). Moreover, the inhibition of growth at 100 µM in series [2] came to 100%.

Regarding `O=c1ccn([C@@H]2O[C@H](C=C(Br)Br)[C@@H](O)[C@H]2O)c(=O)[nH]1`, in series [2], the inhibition of growth at 100 µM was 12.2%.

In series [1], `[N-]=[N+]=NC[C@H]1O[C@@H](n2cnc3c(N)ncnc32)[C@H](O)[C@@H]1O` displayed an IC50 of 48.5 µM. In addition, in series [2], the inhibition of growth at 100 µM amounted to 85.2%.

`N[C@@H]1[C@H](O)[C@@H](CO)O[C@H]1n1ccc(=O)[nH]c1=O`: the inhibition of growth at 100 µM in series [2] is 18.4%.

Compound `Cc1ncc([N+](=O)[O-])n1CCO` [METRONIDAZOLE] came in with an IC50 in series [3] of 0.21 µM.

For the compound `CC(=O)O[C@H]1[C@@H](O)[C@H](n2ccc(=O)[nH]c2=O)O[C@@H]1CO`, the inhibition of growth at 100 µM in series [2] was 22.8%.

Consider `Nc1ncnc2c1ncn2[C@H]1C[C@H](O)[C@@H](CO)O1` [DEOXYADENOSINE], for which the inhibition of growth at 100 µM in series [2] worked out at 48.7%.

Consider `O=c1ccn([C@H]2C[C@H](O)[C@@H](CI)O2)c(=O)[nH]1`, for which, in series [2], the inhibition of growth at 100 µM was determined as 21.2%.

Consider `Nc1ncnc2c1ncn2[C@@H]1O[C@H](CO)[C@@H](O)[C@H]1O` [ADENOSINE], for which the inhibition of growth at 100 µM in series [2] amounted to 49.7%.

For `Nc1ncnc2c1ncn2[C@@H]1O[C@H](CSc2ccc(Cl)cc2)[C@@H](O)[C@H]1O`, the inhibition of growth at 100 µM in series [2] is 51.2%.

For `CCCSS[C@@H]1[C@H](O)[C@@H](CO)O[C@H]1n1cnc2c(N)ncnc21`, the inhibition of growth at 100 µM in series [2] worked out at 43%.

For `O=c1ccn([C@@H]2O[C@H](CSc3ccccc3)[C@@H](O)[C@H]2O)c(=O)[nH]1`, the “growth inhibition (GI)” value in series [2] is “inactive”.

As to `CCCSS[C@H]1[C@H](O)[C@@H](CO)O[C@H]1n1cnc2c(N)nc(N)nc21`, the inhibition of growth at 100 µM in series [2] was found to be 6.2%.

For the compound `Nc1ncnc2c1ncn2[C@@H]1O[C@H](CO)[C@H](F)[C@H]1O`, the inhibition of growth at 100 µM in series [2] was 57.5%.

In the case of `O=c1[nH]cnc2c1ncn2[C@@H]1O[C@H](CO)[C@@H](O)[C@H]1O` [INOSINE], the inhibition of growth at 100 µM in series [2] worked out at 19.2%.

Turning to `Nc1ncnc2c1ncn2[C@@H]1O[C@H](CO)[C@@H](O)[C@@H]1F`, the IC50 came out at 0.09 µM in series [1] and 100 µM in series [3]. For the same compound, the inhibition of growth at 100 µM in series [2] is 99.6%. For the same compound, the Activity result in series [4] is listed as “Non-toxic”.

On to `NC[C@H]1O[C@@H](n2cnc3c(N)ncnc32)[C@H](O)[C@@H]1O`, for which the inhibition of growth at 100 µM in series [2] worked out at 24.1%.

With `NC[C@H]1O[C@@H](n2cnc3c(NC(=O)c4ccccc4)ncnc32)[C@H](O)[C@@H]1O`, in series [2], the inhibition of growth at 100 µM amounted to 21.7%.

For `COc1ccc(SC[C@H]2O[C@@H](n3cnc4c(N)ncnc43)[C@H](O)[C@@H]2O)cc1`, the inhibition of growth at 100 µM in series [2] was 58%.

In the case of `Nc1c2ncn([C@@H]3O[C@H](CO)[C@@H](O)[C@H]3O)c2nc[n+]1[O-]`, in series [2], the inhibition of growth at 100 µM worked out at 37.7%.

As to `Nc1ncnc2c1ncn2[C@@H]1O[C@H](CO)[C@@H](F)[C@H]1O`, in series [1], the midpoint of inhibition, the IC50, lay at 1.61 µM. Also, in series [2], the inhibition of growth at 100 µM came to 100%.

As to `CCCSS[C@H]1[C@H](O)[C@@H](CO)O[C@H]1n1cnc2c(N)ncnc21`, the inhibition of growth at 100 µM in series [2] is 66.8%.

Turning to `O=C(Nc1ncnc2c1ncn2[C@@H]1O[C@H](CCl)[C@@H](O)[C@H]1O)c1ccccc1`, the inhibition of growth at 100 µM in series [2] was 40.7%.

Turning to `Nc1ncnc2c1ncn2[C@@H]1O[C@H](COC(=O)c2ccccc2)[C@@H](O)[C@H]1O`, in series [2], the inhibition of growth at 100 µM was 13.5%.

For `Nc1ncnc2c1ncn2[C@@H]1O[C@H](CO)[C@@H](O)[C@@H]1O` [VIDARABINE], in series [1], the IC50 came out at 3.6 µM. Also, the inhibition of growth at 100 µM in series [2] amounted to 100%.

Take `Nc1ncnc2c1ncn2[C@@H]1O[C@H](CO)[C@H]2O[C@H]21`: in series [2], the inhibition of growth at 100 µM was found to be 43%.

As for `Nc1nc(N)c2ncn([C@@H]3O[C@H](CO)[C@@H](O)[C@H]3O)c2n1`, the IC50 in series [1] was found to be 29.5 µM. The inhibition of growth at 100 µM in series [2] worked out at 100%.

Take `O=c1ccn([C@@H]2O[C@H](CCl)[C@@H](O)[C@H]2O)c(=O)[nH]1`: the “growth inhibition (GI)” value in series [2] is “inactive”.

In the case of `Nc1ncnc2c1ncn2[C@@H]1O[C@H](CO)C[C@H]1O` [CORDYCEPIN], the inhibition of growth at 100 µM in series [2] was found to be 94.1%.

In the case of `CC(C)CSC[C@H]1O[C@@H](n2cnc3c(N)ncnc32)[C@H](O)[C@@H]1O`, in series [2], the inhibition of growth at 100 µM is 44.9%.
